Assay [1] deals with Rhodopirellula baltica RbMPO, wild type, SEQ ID NO: 1. Put plainly: Pre-steady-state kinetics: compound I formation and return to native state (stopped-flow, 412 nm). It counts as biochemical. As to conditions: for Ki: H2O2 excess. As for the experimental part:
In the first moment after an enzyme is mixed with a substrate, no product has been formed and no intermediates exist. The study of the next few milliseconds of the reaction is called pre-steady-state kinetics.
Kinetic parameters under pre-steady-state condition were performed with a Biologic SFM400 stopped-flow at 412 nm, 37° C. and with 50 mM sodium phosphate buffer at pH7.5. […] An exponential linear fit was applied to each kinetic using the following formula: […]
where p1 corresponds to the exponential magnitude, p2 to the decay time Tau (s) and
The heme Soret band is at 412 nm for the native Fe^III iron form, which is why the decrease in absorbance was followed at this particular wavelength as a function of time. The rate constant was measured using the A412nm curves as a function of time (data not shown). By applying Eq.4 to the exponential part of each kinetic, the values of Tau (s) were determined and the kobs (s^−1) were calculated.
The return of the enzyme to its native state was studied by the impact of increasing concentrations of (pseudo)-halides substrates on compound I (FIG. 9B). […] It is the time difference (s) between the two characteristic steps that allowed the calculation of the values of the Vreturn(μM^−1.s^−1) values: […]

The test system of assay [2] is Rhodopirellula baltica RbMPO variant D202A, E316A (of SEQ ID NO: 1). From the text:
(§1) The chlorination activity of myeloperoxidases can be determined using the aminophenyl fluorescein (APF) probe. One can indeed detect the oxidation of APF (non-fluorescent) by HOCl into fluorescein, a fluorescent molecule that is detectable at λex=485 nm and λem=525 nm. According to such test, the fluorescence measured is proportional to the quantity of fluorescein, which itself is proportional to the quantity of HOCl produced by the myeloperoxidase.
(§2) Measurements of chlorination activity were herein performed in Corning 384-well clear-bottom (flat-bottom) plates with a reaction volume of 20 μL, in triplicate at 37° C., and in a 50 mM NaPi buffer at pH7.5. […] A 10 to 30 minutes kinetic was performed for each range value and the fluorescence intensity was compared to that of the standard fluorescein range. Thus, the measured fluorescence is proportional to the amount of fluorescein, which in turn is proportional to the amount of HOCl produced by the RbMPOs.
(§3) The slopes were measured at the onset of the reaction in order to be in initial velocity. From these values, it was possible to calculate the kss with the following equation: […]

Assay [3] has as its system Rhodopirellula baltica RbMPO variant N317M (of SEQ ID NO: 1). As to conditions: N317M 1 μM, H2O2 range, 500 mM NaCl, 10 μM APF, 37° C., pH7.5.
Source text: as §1, §2, §3

Assay [4] relates to Rhodopirellula baltica RbMPO, wild type, SEQ ID NO: 1. As to conditions: 37° C.; for Km: read-out: KM (catalase, H2O2); for Ki: read-out: Ki (catalase, H2O2). The method, then: Catalase activity was measured using the stopped-flow set-up, which was configured to measure absorbance decay at 240 nm and at 37° C.
The test system is the same in assay [5]. As to conditions: H2O2 range, 267 nM wt RbMPO; for Km: read-out: KMapp (H2O2).
Protocol: Initial rate measurements under steady state conditions were performed with a BioLogic SFM400 stopped-flow by using a single-mixing mode and an Xe/Hg lamp and a TC100/10 cell. […] At least five 120 s shots were monitored for each value of the substrate range with the following sample rates: 20 μs, 20 ms, 20 ms with 2000 points per period. Slopes were calculated from the average of the shorts for each concentration and kss (s^−1) were determined from the slopes using the following formula:
The collected data were analysed with Origin software, then saturation curves for each substrate were fitted either by non-linear regression with or without inhibition by excess of substrate (Eq. 1 and 2) with [S]the substrate of interest, or by linear regression (Eq. 3) with a the slope and b the y-intercept.
The stopped-flow was used to define the steady-state kinetic parameters of RbMPOs. […] From the averages of the curves obtained for each shot, the slopes in Abs.s^−1 were calculated and then converted into kss by the following relation:
Assay [6] deals with Rhodopirellula baltica RbMPO variant H407A (of SEQ ID NO: 1). As to conditions: read-out: KM H2O2; H407A 1 μM; H2O2 range, 500 mM NaCl, 10 μM APF, 37° C., pH7.5.
Assay [7] concerns Rhodopirellula baltica RbMPO variant Q199A (of SEQ ID NO: 1). As to conditions: Q199A 1 μM, H2O2 range, 500 mM NaCl, 10 μM APF, 37° C., pH7.5.
[8] abbreviates: H2O2, wt RbMPO 1.78 μM, 37° C., pH7.5.

Where two headings read alike, the source gives them in different places.

Consider one compound from patent US20250297232A1, “BACTERIAL MYELOPEROXIDASE-CATALASE AND APPLICATIONS THEREOF” (UNIVERSITÉ DE BORDEAUX, priority 2022, published 2025).

In general, Kd refers to a measure of binding affinity in units of concentration. A low value points to a tighter complex. The term Ki denotes a measure of affinity in units of concentration, obtained from inhibition or displacement.

`OO` [H2O2, hydrogen peroxide] registered a dissociation constant Kd in assay [1] (setting [8]) of 0.0569 ± 0.0201 mM. Further, in assay [1] (setting [8]), the “kobsmax (compound I formation)” value worked out at 57.09 ± 8.60 s⁻¹. Moreover, the Ki in assay [1] (read-out: Ki (compound I formation, text)) was 10.9 mM; in assay [1] (wt RbMPO 1.78 μM, 37° C., pH7.5, read-out: Ki (compound I formation)), 10.9 ± 3 mM; in assay [2] (read-out: Ki H2O2, E316A 1 μM, H2O2 range, 500 mM NaCl, 10 μM APF, 37° C., pH7.5), 96.3 ± 31.9 mM; in assay [3] (read-out: Ki H2O2), 48.1 ± 15.4 mM; in assay [4] (pH 7, 2 μM wt RbMPO) it was 0.54 ± 0.57 mM; in assay [4] (pH 7.5, 2 μM wt RbMPO), 1.07 ± 0.7 mM. The inhibition constant Ki in assay [7] (read-out: Ki H2O2) was 18.3 ± 5.34 mM. Moreover, the Km in assay [2] (read-out: KM H2O2, E316A 1 μM, H2O2 range, 500 mM NaCl, 10 μM APF, 37° C., pH7.5) came out at 220 ± 60 µM; in assay [3] (read-out: KM H2O2), 320 ± 90 µM; in assay [4] (pH 7, 2 μM wt RbMPO) it was 40 ± 40 µM; in assay [4] (pH 7.5, 2 μM wt RbMPO), 170 ± 110 µM; in assay [5] (Br 100 mM) it was 230 ± 210 µM; in assay [5] (SCN 5 mM) it was 120 ± 40 µM. The Km in assay [6] stood at 270 ± 90 µM; in assay [7] (read-out: KM H2O2), 490 ± 150 µM. Besides, the “kcat (catalase, H2O2)” value was 1.62 ± 0.86 s⁻¹ in assay [4] (pH 7, 2 μM wt RbMPO) and 56.64 ± 20.62 s⁻¹ in assay [4] (pH 7.5, 2 μM wt RbMPO). For the same compound, the “kcatapp (H2O2)” value in assay [5] (Br 100 mM) was 113.72 ± 72.11 s⁻¹; in assay [5] (SCN 5 mM) it was 203.24 ± 45.46 s⁻¹.
